Reference: ChEMBL document CHEMBL6115011, “Optimizing biofilm inhibitors: Balancing activity and toxicity in 2N-aminated 5-aryl-2-aminoimidazoles” (Bioorg Med Chem, 2025)

Key:
[1] = system: Staphylococcus aureus; test: Inhibition of biofilm formation in Staphylococcus aureus SH1000 at 25 degree C measured after 48 hrs by crystal violet staining based analysis; format: functional, organism-based; settings: SH1000, 48 h
[2] = system: Escherichia coli; test: Inhibition of biofilm formation in Escherichia coli TG1 at 25 degree C measured after 24 hrs by crystal violet staining based microplate reader analysis; format: functional, organism-based; settings: TG1, 24 h
[3] = system: Pseudomonas aeruginosa; test: Antibacterial activity against Pseudomonas aeruginosa PA14 at 25 degree C measured after 24 hrs by crystal violet staining based microplate reader analysis; format: functional, organism-based; settings: PA14, 24 h
[4] = system: Escherichia coli; test: Antibacterial activity against Escherichia coli TG1 at 25 degree C measured after 24 hrs by crystal violet staining based microplate reader analysis; format: functional, organism-based; settings: TG1, 24 h
[5] = system: Pseudomonas aeruginosa; test: Inhibition of biofilm formation in Pseudomonas aeruginosa PA14 at 25 degree C measured after 24 hrs by crystal violet staining based analysis; format: functional, organism-based; settings: PA14, 24 h
[6] = system: Staphylococcus aureus; test: Antibacterial activity against Staphylococcus aureus SH1000 at 25 degree C measured after 48 hrs by crystal violet staining based microplate reader analysis; format: functional, organism-based; settings: SH1000, 48 h
[7] = Cytotoxicity against human PBMC cells assessed as survival rate at 400 uM measured after 72 hrs by trypan blue staining based assay relative to control; format: toxicity, cell-based; settings: read-out: Survival
[8] = system: Z-138; test: Cytotoxicity against human Z138 cells assessed as inhibition of cell growth measured after 72 hrs by CellTiter 96 Aqueous One Solution Cell Proliferation Assay; format: functional
[9] = Cytotoxicity against human PBMC cells assessed as survival rate at 100 uM measured after 72 hrs by trypan blue staining based assay relative to control; format: toxicity, cell-based; settings: read-out: Survival
[10] = system: K562; test: Cytotoxicity against human K562 cells assessed as inhibition of cell growth measured after 72 hrs by CellTiter 96 Aqueous One Solution Cell Proliferation Assay; format: functional; settings: Homo sapiens, K562, 72 h
[11] = system: Staphylococcus epidermidis; test: Inhibition of biofilm formation in Staphylococcus epidermidis at 25 degree C measured after 48 hrs by crystal violet staining based analysis; format: functional, organism-based
[12] = system: Staphylococcus aureus; test: Antibacterial activity against methicillin-resistant Staphylococcus aureus at 25 degree C measured after 48 hrs by crystal violet staining based microplate reader analysis; format: functional, organism-based
[13] = Cytotoxicity against human PBMC cells assessed as survival rate at 25 uM measured after 72 hrs by trypan blue staining based assay relative to control; format: toxicity, cell-based; settings: read-out: Survival
[14] = system: HL-60; test: Cytotoxicity against human HL-60 cells assessed as inhibition of cell growth measured after 72 hrs by CellTiter 96 Aqueous One Solution Cell Proliferation Assay; format: functional
[15] = system: Staphylococcus aureus; test: Inhibition of biofilm formation in methicillin-resistant Staphylococcus aureus at 25 degree C measured after 48 hrs by crystal violet staining based analysis; format: functional, organism-based
[16] = system: Staphylococcus epidermidis; test: Antibacterial activity against Staphylococcus epidermidis at 25 degree C measured after 48 hrs by crystal violet staining based microplate reader analysis; format: functional, organism-based
[17] = Cytotoxicity against human DND41 cells assessed as inhibition of cell growth measured after 72 hrs by CellTiter 96 Aqueous One Solution Cell Proliferation Assay; format: functional
[18] = Genotoxicity in human CAPAN-1 cells assessed as fold change at 400 uM measured after 3 hrs by Western blot analysis; format: toxicity, cell-based; settings: capan-1, 3 h
[19] = system: LN-229; test: Cytotoxicity against human LN-229 cells assessed as inhibition of cell growth measured after 72 hrs by CellTiter 96 Aqueous One Solution Cell Proliferation Assay; format: functional; settings: Homo sapiens, LN-229, 72 h
[20] = system: HCT-116; test: Cytotoxicity against human HCT-116 cells assessed as inhibition of cell growth measured after 72 hrs by CellTiter 96 Aqueous One Solution Cell Proliferation Assay; format: functional
[21] = system: NCI-H460; test: Cytotoxicity against human NCI-H460 cells assessed as inhibition of cell growth measured after 72 hrs by CellTiter 96 Aqueous One Solution Cell Proliferation Assay; format: functional
[22] = system: CAPAN-1; test: Cytotoxicity against human CAPAN-1 cells assessed as inhibition of cell growth measured after 72 hrs by CellTiter 96 Aqueous One Solution Cell Proliferation Assay; format: functional
[23] = Genotoxicity in human CAPAN-1 cells at 100 to 400 uM measured after 3 hrs by Western blot analysis; format: toxicity, cell-based; settings: capan-1, 3 h, dose 100-400 µM
[24] = Toxicity in Caenorhabditis elegans CB5612 assessed as increase in food depletion delay by wide field microscopy based analysis
[25] = Genotoxicity in human CAPAN-1 cells assessed as fold change at 100 uM measured after 3 hrs by Western blot analysis; format: toxicity, cell-based; settings: capan-1, 3 h

CCCCCCCCNc1ncc(-c2ccc(Cl)cc2)[nH]1
IC50 [1]: 43.1 µM
IC50 [2]: 8.42 µM
IC50 [3]: 70.2 µM
IC50 [4]: 72.3 µM
IC50 [5]: > 200 µM
IC50 [6]: 84.4 µM

NCCCCCCCCn1c(-c2ccccc2)cnc1NC1CCCC1
IC50 [1]: 70.4 µM
IC50 [2]: 33.5 µM
IC50 [3]: 74.4 µM
IC50 [4]: 85.1 µM
IC50 [5]: 107 µM
IC50 [6]: 79.4 µM

CCCCCCCCn1c(-c2ccccc2)cnc1NC1CCCC1
IC50 [1]: 8.34 µM
IC50 [2]: 6.55 µM
IC50 [3]: 20.6 µM
IC50 [4]: 8.37 µM
IC50 [5]: > 800 µM
IC50 [6]: 8.35 µM

NCCCCCCCCn1c(-c2ccc(Br)cc2)cnc1NC1CCCC1
IC50 [1]: 167 µM
IC50 [2]: 25.2 µM
IC50 [3]: 61.4 µM
viability at 72 h, 400 µM [7]: 48%
IC50 [4]: 43.4 µM
IC50 [5]: 147 µM
IC50 [6]: 56.1 µM

NCCCCCCCCNc1ncc(-c2ccc(Cl)cc2)[nH]1
IC50 [1]: 15.8 µM
IC50 [2]: 16.6 µM
CC50 ([8]; 72 h): 20 µM
CC50 ([8]; Homo sapiens, Z-138, 72 h): 21.6 µM
viability at 72 h, 100 µM [9]: 17.5%
CC50 [10]: 20 µM
IC50 [11]: 59.6 µM
IC50 [12]: 93.7 µM
IC50 [3]: 21 µM
viability at 72 h, 400 µM [7]: 0.5%
viability at 72 h, 25 µM [13]: 79.6%
CC50 [14]: 20 µM
IC50 [15]: 34.8 µM
IC50 [16]: 51.2 µM
CC50 [17]: 20 µM
IC50 [4]: 16.9 µM
IC50 [5]: 19.2 µM
fold change (FC) [18]: 12.1
IC50 [6]: 12.5 µM

NCCCCCCNc1ncc(-c2ccc(Cl)cc2)[nH]1
IC50 [1]: 86.5 µM
IC50 [2]: 3.28 µM
CC50 ([8]; Homo sapiens, Z-138, 72 h): 11 µM
CC50 [10]: 36.2 µM
IC50 [11]: 42.1 µM
IC50 [12]: 16.1 µM
IC50 [3]: 22.3 µM
CC50 [19]: 40 µM
CC50 [20]: 40 µM
CC50 [14]: 13.2 µM
IC50 [15]: 28.3 µM
IC50 [16]: 90.8 µM
CC50 [21]: 40 µM
IC50 [4]: 16.1 µM
IC50 [5]: 4.24 µM
fold change (FC) [18]: 14.6
CC50 [22]: 40 µM
IC50 [6]: 71.2 µM

NCCCCCCCNc1ncc(-c2ccccc2)[nH]1
IC50 [1]: 64.7 µM
IC50 [2]: 17.3 µM
IC50 [11]: 12.3 µM
IC50 [12]: 72.6 µM
IC50 [3]: 33.3 µM
IC50 [15]: 48.9 µM
CC50 [21]: 68.8 µM
IC50 [4]: 39.7 µM
IC50 [5]: 12.4 µM
Activity [23]: Non-toxic
CC50 [22]: 41.1 µM
IC50 [6]: 106 µM

NCCCCCCCCCCCCNc1ncc(-c2ccccc2)[nH]1
IC50 [1]: 25.4 µM
IC50 [2]: 9.6 µM
viability at 72 h, 100 µM [9]: < 50%
IC50 [11]: 23.8 µM
IC50 [12]: 19.7 µM
IC50 [3]: 12.3 µM
viability at 72 h, 400 µM [7]: 4.5%
viability at 72 h, 25 µM [13]: 6%
IC50 [15]: 12.8 µM
IC50 [16]: 32 µM
IC50 [4]: 9.5 µM
Time [24]: 3.5 days
IC50 [5]: 6.7 µM
fold change (FC) [25]: 2.75
fold change (FC) [18]: 1.95
IC50 [6]: 14 µM

NCCCCCCCCCCCNc1ncc(-c2ccccc2)[nH]1
IC50 [1]: 37.5 µM
IC50 [2]: 15.5 µM
IC50 [11]: 1.8 µM
IC50 [12]: 47.7 µM
IC50 [3]: 16.7 µM
IC50 [15]: 18.1 µM
IC50 [16]: 25 µM
IC50 [4]: 14.2 µM
Time [24]: 3 days
IC50 [5]: 8.3 µM
fold change (FC) [18]: 1.75
IC50 [6]: 28.6 µM

CCCCCCNc1ncc(-c2ccc(Cl)cc2)[nH]1
IC50 [1]: 141 µM
IC50 [2]: 11.3 µM
IC50 [3]: 38.7 µM
IC50 [4]: 21.8 µM
IC50 [5]: 40.6 µM
IC50 [6]: 186 µM

CCCCCCCCn1c(-c2ccc(Br)cc2)cnc1NC1CCCC1
IC50 [1]: 63.2 µM
IC50 [2]: 14 µM
IC50 [3]: 25.2 µM
IC50 [4]: 25.7 µM
IC50 [5]: > 800 µM
IC50 [6]: 33.1 µM

NCCCCCCNc1ncc(-c2ccc(Br)cc2)[nH]1
IC50 [1]: 59.6 µM
IC50 [2]: 14.2 µM
IC50 [11]: 35.3 µM
IC50 [12]: 106 µM
IC50 [3]: 27.4 µM
CC50 [19]: 40 µM
CC50 [20]: 40 µM
IC50 [15]: 60 µM
IC50 [16]: 85.2 µM
CC50 [21]: 40 µM
IC50 [4]: 21 µM
Time [24]: 0.66 days
IC50 [5]: 11.2 µM
fold change (FC) [25]: 2.3
fold change (FC) [18]: 5.75
CC50 [22]: 40 µM
IC50 [6]: 38.6 µM

NCCCCCNc1ncc(-c2ccccc2)[nH]1
IC50 [1]: 91.7 µM
IC50 [2]: 38.3 µM
IC50 [11]: 25.6 µM
IC50 [12]: 503 µM
IC50 [3]: 61.2 µM
IC50 [15]: 154 µM
IC50 [4]: 80 µM
IC50 [5]: 16.5 µM
Activity [23]: Non-toxic
IC50 [6]: 224 µM

NCCCCCCCCCCNc1ncc(-c2ccccc2)[nH]1
IC50 [1]: 24.9 µM
IC50 [2]: 18.6 µM
IC50 [11]: 8.2 µM
IC50 [12]: 23.8 µM
IC50 [3]: 60.7 µM
CC50 [20]: 46.9 µM
CC50 [14]: 47.1 µM
IC50 [15]: 19.8 µM
IC50 [16]: 25.7 µM
IC50 [4]: 17.8 µM
IC50 [5]: 16.8 µM
fold change (FC) [18]: 2
IC50 [6]: 15.3 µM

CCc1c2c(nc3ccc(O)cc13)-c1cc3c(c(=O)n1C2)COC(=O)[C@]3(O)CC [7-ETHYL-10-HYDROXYCAMPTOTHECIN]
fold change (FC) [25]: > 7
fold change (FC) [18]: 9

OB(O)O [BORIC ACID]
Time [24]: > 10 days

COc1cc([C@@H]2c3cc4c(cc3[C@@H](O[C@@H]3O[C@@H]5CO[C@@H](C)O[C@H]5[C@H](O)[C@H]3O)[C@H]3COC(=O)[C@H]23)OCO4)cc(OC)c1O [ETOPOSIDE]
viability at 72 h, 100 µM [9]: 71%
viability at 72 h, 400 µM [7]: 38%
viability at 72 h, 25 µM [13]: < 67%
fold change (FC) [25]: 10
fold change (FC) [18]: > 8
